Assay results reported in US20080021071A1, “3-{4-(Pyridin-3-Yl) Phenyl}-5-(1H-1,2,3-Triazol-1-Ylmethyl)-1,3-Oxazolidin-2-Ones as Antibacterial Agents” (ASTRAZENECA AB, priority 2004, published 2008).
Converted amounts (≈) assume the structure as drawn. Counter-ions that a name gives are not always drawn.

Columns and labels:
MAO-A = target: T1, MAO-A (Homo sapiens, UniProt P21397); test: MAO-A inhibition, standard in-vitro assay, human liver enzyme expressed in yeast; format: biochemical
T1 construct: made in house; host or cells: yeast
T1 sequence (P21397 1-527): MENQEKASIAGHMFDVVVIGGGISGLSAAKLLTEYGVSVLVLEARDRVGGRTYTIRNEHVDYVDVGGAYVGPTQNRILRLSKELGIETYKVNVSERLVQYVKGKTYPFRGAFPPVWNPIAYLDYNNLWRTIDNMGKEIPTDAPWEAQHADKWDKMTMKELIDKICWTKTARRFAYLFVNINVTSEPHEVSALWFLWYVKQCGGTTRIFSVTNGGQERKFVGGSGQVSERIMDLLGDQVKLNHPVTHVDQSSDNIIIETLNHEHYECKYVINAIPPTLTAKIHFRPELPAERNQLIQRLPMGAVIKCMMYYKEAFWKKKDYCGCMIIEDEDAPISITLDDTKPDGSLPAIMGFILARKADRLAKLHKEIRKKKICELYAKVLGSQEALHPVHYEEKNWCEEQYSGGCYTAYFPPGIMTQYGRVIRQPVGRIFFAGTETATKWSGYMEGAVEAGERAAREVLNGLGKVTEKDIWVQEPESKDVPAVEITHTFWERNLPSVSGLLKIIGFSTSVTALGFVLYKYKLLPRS
Procedure: The activity of the compounds of the invention against MAO-A was tested using a standard in-vitro assay based on human liver enzyme expressed in yeast as described in Biochem. Biophys. Res. Commun. 1991, 181, 1084-1088. Compounds of the invention typically give Ki values of >5 μM when measured in such an assay as above.

[1] = system: Staphylococcus aureus MSQS; test: MIC, agar-dilution, Staphylococcus aureus MSQS; format: cell-based; details: Staphylococcus aureus MSQS (methicillin sensitive and quinolone sensitive)
Procedure: (§1) The following results were obtained on a standard in-vitro test system. The activity is described in terms of the minimum inhibitory concentration (MIC) determined by the agar-dilution technique with an inoculum size of 10^4 CFU/spot. Typically, compounds are active in the range 0.01 to 256 μg/ml.
(§2) Staphylococci were tested on agar, using an inoculum of 10^4 CFU/spot and an incubation temperature of 37° C. for 24 hours—standard test conditions for the expression of methicillin resistance.

[2] = system: Staphylococcus aureus MRQR; test: MIC, agar-dilution, Staphylococcus aureus MRQR; format: cell-based; details: Staphylococcus aureus MRQR (methicillin resistant and quinolone resistant)
Procedure: as §1, §2

Streptococcus pneumoniae = test: MIC, Streptococcus pneumoniae; format: cell-based
Procedure: as §1
(§3) Streptococci and enterococci were tested on agar supplemented with 5% defibrinated horse blood, an inoculum of 10^4 CFU/spot and an incubation temperature of 37° C. in an atmosphere of 5% carbon dioxide for 48 hours—blood is required for the growth of some of the test organisms. Fastidious Gram negative organisms were tested in Mueller-Hinton broth, supplemented with hemin and NAD, grown aerobically for 24 hours at 37° C., and with an innoculum of 5×10^4 CFU/well.

Haemophilus influenzae = test: MIC, Haemophilus influenzae; format: cell-based
Procedure: as §1, §3

[3] = system: Linezolid Resistant Streptococcus pneumoniae; test: MIC, Linezolid Resistant Streptococcus pneumoniae; format: cell-based
Procedure: as §1, §3

[4] = equilibrium solubility in pH 7.4 phosphate buffer; format: physicochemical; details: aqueous buffer, thermodynamic from solid
From the text: It will be understood that parameters such as solubility may be measured by any suitable technique known in the art.

melting point | Ki (MAO-A) [µM] | Structure (SMILES) | also measured
130 to 135 °C | – | CC(=O)CC(O)c1ccc(-c2ccc(N3C[C@H](Cn4ccnn4)OC3=O)cc2F)cn1 (stereo partly drawn) [Example 14, (5R)-3-{3-Fluoro-4-[6(1-hydroxy-3-oxobutyl)pyridin-3-yl]phenyl}-5-(1H-1,2,3-triazol-1-ylmethyl)-1,3-oxazolidin-2-one] | –
– | < 0.3 | N#Cc1ccc(-c2ccc(N3C[C@H](Cn4ccnn4)OC3=O)cc2F)cn1 [Ref Example 1, 5-{2-Fluoro-4-[(5R)-2-oxo-5-(1H-1,2,3-triazol-1-ylmethyl)-1,3-oxazolidin-3-yl]phenyl}pyridine-2-carbonitrile] | –
177 °C | 4.8 | O=C1O[C@@H](Cn2ccnn2)CN1c1ccc(-c2ccc(CO)nc2)c(F)c1 [Ref Example 3, (5R)-3-{3-Fluoro-4-[6-(hydroxymethyl)pyridin-3-yl]phenyl}-5-(1H-1,2,3-triazol-1-ylmethyl)-1,3-oxazolidin-2-one] | –
> 115 °C (dec.) | – | CN(C)CC(O)c1ccc(-c2ccc(N3C[C@H](Cn4ccnn4)OC3=O)cc2F)cn1 (stereo partly drawn) (as salt: hydrochloride) [Example 2, (5R)-3-(4-{6-[2-(Dimethylamino)-1-hydroxyethyl]pyridin-3-yl}-3-fluorophenyl)-5-(1H-1,2,3-triazol-1-ylmethyl)-1,3-oxazolidin-2-one] | –
183 °C | – | C[C@H](O)c1ccc(-c2ccc(N3C[C@H](Cn4ccnn4)OC3=O)cc2F)cn1 [Example 11, (5R)-3-(3-Fluoro-4-{6-[(1S)-1-hydroxyethyl]pyridin-3-yl}phenyl)-5-(1H-1,2,3-triazol-1-ylmethyl)-1,3-oxazolidin-2-one] | –
175 °C | 48 | O=C1O[C@@H](Cn2ccnn2)CN1c1ccc(-c2ccc(C(O)CO)nc2)c(F)c1 (stereo partly drawn) [Example 4, (5R)-3-{4-[6-(1,2-Dihydroxyethyl)pyridin-3-yl]-3-fluorophenyl}-5-(1H-1,2,3-triazol-1-ylmethyl)-1,3-oxazolidin-2-one] | solubility thermodynamic [4]: 210 µM (≈ 83.9 µg/mL)
190 °C | – | C[C@@H](O)c1ccc(-c2ccc(N3C[C@H](Cn4ccnn4)OC3=O)cc2F)cn1 [Example 10, (5R)-3-(3-Fluoro-4-{6-[(1R)-1-hydroxyethyl]pyridin-3-yl}phenyl)-5-(1H-1,2,3-triazol-1-ylmethyl)-1,3-oxazolidin-2-one] | –
180 °C | – | CC(C)(O)c1ccc(-c2ccc(N3C[C@H](Cn4ccnn4)OC3=O)cc2F)cn1 [Example 5, (5R)-3-{3-Fluoro-4-[6-(1-hydroxy-1-methylethyl)pyridin-3-yl]phenyl}-5-(1-1,2,3-triazol-1-ylmethyl)-1,3-oxazolidin-2-one] | –
160 °C | 15 | CN(C)Cc1ccc(-c2ccc(N3C[C@H](Cn4ccnn4)OC3=O)cc2F)cn1 [Example 8] | –
– | 0.6 | Cc1ccc(-c2ccc(N3C[C@H](Cn4ccnn4)OC3=O)cc2F)cn1 [Ref Example 2, (5R)-3-[3-Fluoro-4-(6-methylpyridin-3-yl)phenyl]-5-(1H-1,2,3-triazol-1-ylmethyl)-1,3-oxazolidin-2-one] | –

Continued, molecule first:

Structure (SMILES) | melting point | Ki (MAO-A) [µM] | also measured
O=C1O[C@@H](Cn2ccnn2)CN1c1ccc(-c2ccc(C(O)CN3CCOCC3)nc2)c(F)c1 (stereo partly drawn) (as salt: hydrochloride) [Example 1, (5R)-3-{3-Fluoro-4-[6-(1-hydroxy-2-morpholin-4-ylethyl)pyridin-3-yl]phenyl}-5-(1H-1,2,3-triazol-1-ylmethyl)-1,3-oxazolidin-2-one] | > 194 °C (dec.) | – | –
Cc1cnc(C)n1CC(O)c1ccc(-c2ccc(N3C[C@H](Cn4ccnn4)OC3=O)cc2F)cn1 (stereo partly drawn) [Example 20, (5R)-3-(4-{6-[2-(2,5-Dimethyl-1H-imidazol-1-yl)-1-hydroxyethyl]pyridin-3-yl}-3-fluorophenyl)-5-(1H-1,2,3-triazol-1-ylmethyl)-1,3-oxazolidin-2-one] | 195 to 200 °C | – | –
O=C(OCc1ccc(-c2ccc(N3C[C@H](Cn4ccnn4)OC3=O)cc2F)cn1)N1CCOCC1 [Example 13, (5-{2-Fluoro-4-[(5R)-2-oxo-5-(1H-1,2,3-triazol-1-ylmethyl)-1,3-oxazolidin-3-yl]phenyl}pyridin-2-yl)methyl morpholine-4-carboxylate] | 131 to 133 °C | – | –
O=C1O[C@@H](Cn2ccnn2)CN1c1ccc(-c2ccc(C(O)CN3CCOCC3)nc2)c(F)c1 (stereo partly drawn) [Example 1, (5R)-3-{3-Fluoro-4-[6-(1-hydroxy-2-morpholin-4-ylethyl)pyridin-3-yl]phenyl}-5-(1H-1,2,3-triazol-1-ylmethyl)-1,3-oxazolidin-2-one] | – | 94 | MIC [1]: 1 mg/L (≈ 2.13 µM); MIC [2]: 1 mg/L (≈ 2.13 µM); MIC (Streptococcus pneumoniae): 0.25 mg/L (≈ 0.534 µM); MIC (Haemophilus influenzae): 4 mg/L (≈ 8.54 µM); MIC [3]: 2 mg/L (≈ 4.27 µM)
O=C1O[C@@H](Cn2ccnn2)CN1c1ccc(-c2ccc(CN3CCOCC3)nc2)c(F)c1 [Example 9, (5R)-3-{3-Fluoro-4-[6-(morpholin-4-ylmethyl)pyridin-3-yl]phenyl}-5-(1H-1,2,3-triazol-1-ylmethyl)-1,3-oxazolidin-2-one] | 175 °C | – | –
CC(C)NCC(O)c1ccc(-c2ccc(N3C[C@H](Cn4ccnn4)OC3=O)cc2F)cn1 (stereo partly drawn) (as salt: hydrochloride) [Example 3, (5R)-3-(3-Fluoro-4-{6-[1-hydroxy-2-(isopropylamino)ethyl]pyridin-3-yl}phenyl)-5-(1H-1,2,3-triazol-1-ylmethyl)-1,3-oxazolidin-2-one] | > 170 °C (dec.) | – | –
CN(CCO)Cc1ccc(-c2ccc(N3C[C@H](Cn4ccnn4)OC3=O)cc2F)cn1 [Example 7, (5R)-3-[3-Fluoro-4-(6-{[(2-hydroxyethyl)(methyl)amino]methyl}pyridin-3-yl)phenyl]-5-(1H-1,2,3-triazol-1-ylmethyl)-1,3-oxazolidin-2-one] | 137 °C | – | –
O=C1O[C@@H](Cn2ccnn2)CN1c1ccc(-c2cccnc2)c(F)c1 [Ref Example 4, (5R)-3-(3-Fluoro-4-pyridin-3-ylphenyl)-5-(1H-1,2,3-triazol-1-ylmethyl)-1,3-oxazolidin-2-one] | – | < 0.3 | –
O=C1O[C@@H](Cn2ccnn2)CN1c1ccc(-c2ccc(C(O)C3CC3)nc2)c(F)c1 (stereo partly drawn) [Example 16, (5R)-3-(4-{6-[Cyclopropyl(hydroxy)methyl]pyridin-3-yl}-3-fluorophenyl)-5-(1H-1,2,3-triazol-1-ylmethyl)-1,3-oxazolidin-2-one] | 160 to 163 °C | – | –
CN(Cc1ccc(-c2ccc(N3C[C@H](Cn4ccnn4)OC3=O)cc2F)cn1)CC(O)CO (stereo partly drawn) [Example 6, (5R)-3-[4-(6-{[(2,3-Dihydroxypropyl)(methyl)amino]methyl}pyridin-3-yl)-3-fluorophenyl]-5-(1-1,2,3-triazol-1-ylmethyl)-1,3-oxazolidin-2-one] | 123 °C | – | –
Cc1cn(C[C@H]2CN(c3ccc(-c4ccc(C#N)nc4)c(F)c3)C(=O)O2)nn1 [Ref Example 7, 5-(2Fluoro-4-{(5R)-5-[(4-methyl-1H-1,2,3-triazol-1-yl)methyl]-2-oxo-1,3-oxazolidin-3-yl}phenyl)pyridine-2-carbonitrile] | 210 to 212 °C | 3.65 | –
Cn1nnc(-c2ccc(-c3ccc(N4C[C@H](Cn5ccnn5)OC4=O)cc3F)cn2)n1 [Reference Example 6, (5R)-3-(3-Fluoro-4-(6-(2-methyl-2H-tetrazol-5-yl)pyrid-3-yl)phenyl)-5-(1H-1,2,3-triazol-1-ylmethyl)-1,3-oxazolidin-2-one, reference compound] | – | – | solubility thermodynamic [4]: < 7.1 µM
